Source: PubChem BioAssay AID248 (DTP/NCI, 2004)
Several values for one entry are separate records, joined by “and”; a condition that tells them apart may be missing. Identical values can stand only once. Toxic doses and inconclusive results are not listed. No stated cut-off is given here; in the data, active means T/C of 150% or more; inactive means T/C below 125%.

Tested on: L1210 leukemia ip in BDF1 mice, survival T/C
Assay: NCI In Vivo Anticancer Drug Screen. Data for tumor model L1210 Leukemia (intraperitoneal) in B6D2F1 (BDF1) mice
Settings: endpoint: mean survival time, higher = longer survival
Summary of the method: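 Mice bearing the transplanted tumor received compound or vehicle. Survival of the treated group was divided by that of the vehicle-treated control group to give the ratio.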

[1] = dose: 100.0 mg/kg/injection, schedule: Q01DX009 (ip), vehicle: Klucel (hydroxypropylcellulose) (HPC)
[2] = dose: 100.0 mg/kg/injection, schedule: Q04DX003 (ip), vehicle: saline
[3] = dose: 200.0 mg/kg/injection, schedule: Q01DX009 (ip), vehicle: Klucel (hydroxypropylcellulose) (HPC)
[4] = dose: 200.0 mg/kg/injection, schedule: Q04DX003 (ip), vehicle: saline
[5] = dose: 50.0 mg/kg/injection, schedule: Q01DX009 (ip), vehicle: saline with Tween-80
[6] = dose: 100.0 mg/kg/injection, schedule: Q01DX009 (ip), vehicle: saline with Tween-80
[7] = dose: 100.0 mg/kg/injection, schedule: Q01DX001 (ip), vehicle: carboxymethylcellulose (CMC)
[8] = dose: 200.0 mg/kg/injection, schedule: Q01DX001 (ip), vehicle: carboxymethylcellulose (CMC)
[9] = dose: 400.0 mg/kg/injection, schedule: Q01DX001 (ip), vehicle: carboxymethylcellulose (CMC)
[10] = dose: 25.0 mg/kg/injection, schedule: Q01DX009 (ip), vehicle: saline with Tween-80
[11] = dose: 50.0 mg/kg/injection, schedule: Q01DX009 (ip), vehicle: saline
[12] = dose: 100.0 mg/kg/injection, schedule: Q01DX009 (ip), vehicle: saline
[13] = dose: 100.0 mg/kg/injection, schedule: Q04DX003 (ip), vehicle: saline with Tween-80
[14] = dose: 200.0 mg/kg/injection, schedule: Q04DX003 (ip), vehicle: saline with Tween-80
[15] = dose: 400.0 mg/kg/injection, schedule: Q04DX003 (ip), vehicle: saline with Tween-80
[16] = dose: 100.0 mg/kg/injection, schedule: Q04DX003 (ip), vehicle: Klucel (hydroxypropylcellulose) (HPC)
[17] = dose: 200.0 mg/kg/injection, schedule: Q04DX003 (ip), vehicle: Klucel (hydroxypropylcellulose) (HPC)
[18] = dose: 400.0 mg/kg/injection, schedule: Q04DX003 (ip), vehicle: Klucel (hydroxypropylcellulose) (HPC)
[19] = dose: 400.0 mg/kg/injection, schedule: Q01DX009 (ip), vehicle: Klucel (hydroxypropylcellulose) (HPC)

Measured: T/C

C=C(C)C1(CCCCC)C(=O)NC(=S)NC1=O
inactive: dose: 75.0 mg/kg/injection, schedule: Q01DX001 (ip), vehicle: saline 100 % of control | dose: 150.0 mg/kg/injection, schedule: Q01DX001 (ip), vehicle: saline 102 % of control | dose: 300.0 mg/kg/injection, schedule: Q01DX001 (ip), vehicle: saline 95 % of control

CCc1cc2oc(C)c(C)c2c(N=Nc2ccc([N+](=O)[O-])cc2)c1O
inactive: dose: 100.0 mg/kg/injection, schedule: Q04DX002 (ip), vehicle: Klucel (hydroxypropylcellulose) (HPC) 102 % of control | dose: 200.0 mg/kg/injection, schedule: Q04DX002 (ip), vehicle: Klucel (hydroxypropylcellulose) (HPC) 96 % of control | dose: 400.0 mg/kg/injection, schedule: Q04DX002 (ip), vehicle: Klucel (hydroxypropylcellulose) (HPC) 99 % of control

CCCCCCOC(=O)CCCCCCCCCCC(=O)CCCCCC
inactive: dose: 50.0 mg/kg/injection, schedule: Q01DX009 (ip), vehicle: Klucel (hydroxypropylcellulose) (HPC) 97 % of control | dose: 50.0 mg/kg/injection, schedule: Q04DX003 (ip), vehicle: saline 101 % of control | [1] 108 % of control | [2] 103 % of control | [3] 92 % of control | [4] 106 % of control

CCOc1ccc(NC(=O)NCCBr)cc1
inactive: [5] 94 % of control | [6] 94 % of control

CCOC(=O)Nc1cc(NC(c2ccccc2)c2ccccc2)c([N+](=O)[O-])c(N)n1
inactive: [7] 91 % of control | [8] 91 % of control | [9] 89 % of control

NC(N)=NNc1ccccc1
inactive: [10] 115 % of control | [5] 107 % of control | [11] 95 % of control | [6] 86 % of control | [12] 97 % of control

CN=C(NC(C=O)C(O)C(O)C(O)CO)c1ccc(NC(=O)c2ccc(C(=O)Nc3ccc(C(=NC)NC(C=O)C(O)C(O)C(O)CO)cc3)cc2)cc1 (stereo not drawn)
inactive: dose: 62.0 mg/kg/injection, schedule: Q01DX Z (ip), vehicle: water 111 % of control | dose: 125.0 mg/kg/injection, schedule: Q01DX Z (ip), vehicle: water 115 % of control

O=C(O)c1ccc2c3c(ccc([N+](=O)[O-])c13)C=C2
inactive: [13] 96 % of control | [14] 94 % of control | [15] 103 % of control

[Br][V]([Br])[Br]
inactive: dose: 12.0 mg/kg/injection, schedule: Q01DX009 (ip), vehicle: saline 97 % of control | dose: 25.0 mg/kg/injection, schedule: Q01DX009 (ip), vehicle: saline sonified 92 % of control | dose: 25.0 mg/kg/injection, schedule: Q01DX009 (ip), vehicle: saline 93 % of control | [11] 102 % of control | [2] 102 % of control

[O-][n+]1onc(-c2ccccc2)c1-c1ccccc1
inactive: [16] 105 % of control | [17] 108 % of control | [18] 108 % of control

O=S(=O)(CCCBr)NC1CCCCC1
inactive: [1] 96 % of control | [3] 91 % of control | [19] 93 % of control

O=c1c2cccc3c2-c2c4c(cccc14)cc1cccc(c3=O)c21
inactive: [13] 94 % of control | [14] 89 % of control | [15] 100 % of control

O=[N+]([O-])c1ccccc1S(=O)(=O)N1CCN(S(=O)(=O)c2ccccc2[N+](=O)[O-])C1
inactive: [1] 90 % of control | [16] 96 % of control | [3] 93 % of control | [17] 96 % of control | [19] 93 % of control | [18] 100 % of control

CC[N+](C)(CC)CCNC(c1ccccc1)C(Cl)(Cl)Cl (stereo not drawn)
inactive: dose: 5.0 mg/kg/injection, schedule: Q01DX001 (ip), vehicle: saline 92 % of control | dose: 10.0 mg/kg/injection, schedule: Q01DX001 (ip), vehicle: saline 95 % of control | dose: 20.0 mg/kg/injection, schedule: Q01DX001 (ip), vehicle: saline 103 % of control | dose: 40.0 mg/kg/injection, schedule: Q01DX001 (ip), vehicle: saline 95 % of control | dose: 80.0 mg/kg/injection, schedule: Q01DX001 (ip), vehicle: saline 106 % of control | dose: 100.0 mg/kg/injection, schedule: Q01DX001 (ip), vehicle: saline 102 % of control

C(=C(\C[P+](c1ccccc1)(c1ccccc1)c1ccccc1)c1ccccc1)/c1ccccc1
inactive: dose: 5.0 mg/kg/injection, schedule: Q01DX009 (ip), vehicle: saline with Tween-80 97 % of control | dose: 5.0 mg/kg/injection, schedule: Q04DX003 (ip), vehicle: saline with Tween-80 93 % of control | dose: 20.0 mg/kg/injection, schedule: Q04DX003 (ip), vehicle: saline with Tween-80 86 % of control

NC(=O)C1(Nc2ccc(-c3ccc(I)cc3)cc2)CCCC1
inactive: dose: 50.0 mg/kg/injection, schedule: Q01DX001 (ip), vehicle: carboxymethylcellulose (CMC) 86 % of control | [7] 86 % of control | [8] 86 % of control | [9] 90 % of control

CNC(=O)c1nc(C)c(C)nc1OCc1ccccc1
inactive: [12] 106 % of control | [2] 96 % of control | dose: 200.0 mg/kg/injection, schedule: Q01DX009 (ip), vehicle: saline 92 % of control | [4] 94 % of control | dose: 400.0 mg/kg/injection, schedule: Q01DX009 (ip), vehicle: saline 87 % of control | dose: 400.0 mg/kg/injection, schedule: Q04DX003 (ip), vehicle: saline 96 % of control

CN1CCN(C(=O)Cc2c[nH]c3ccccc23)CC1
inactive: dose: 6.25 mg/kg/injection, schedule: Q01DX009 (ip), vehicle: saline with Tween-80 104 % of control | dose: 12.5 mg/kg/injection, schedule: Q01DX009 (ip), vehicle: saline with Tween-80 100 % of control | [10] 120 % of control and 91 % of control | dose: 25.0 mg/kg/injection, schedule: Q04DX003 (ip), vehicle: saline with Tween-80 100 % of control | [5] 95 % of control and 117 % of control | dose: 50.0 mg/kg/injection, schedule: Q04DX003 (ip), vehicle: saline with Tween-80 102 % of control | [6] 115 % of control and 88 % of control | [13] 103 % of control and 108 % of control

C[C@]12C=CC(=O)C=C1CC[C@@H]1[C@@H]2CC[C@]2(C)OC(=O)CC[C@@H]12
inactive: dose: 125.0 mg/kg/injection, schedule: Q01DX Z (sc), vehicle: steriod suspending solution 103 % of control | dose: 250.0 mg/kg/injection, schedule: Q01DX Z (sc), vehicle: steriod suspending solution 102 % of control | dose: 500.0 mg/kg/injection, schedule: Q01DX Z (sc), vehicle: steriod suspending solution 101 % of control | dose: 1000.0 mg/kg/injection, schedule: Q01DX Z (sc), vehicle: steriod suspending solution 101 % of control

N=C(N)c1ccc(-n2nc3ccc(C(=N)N)cc3n2)cc1
inactive: dose: 6.25 mg/kg/injection, schedule: Q04DX003 (ip), vehicle: saline 100 % of control and 103 % of control | dose: 12.5 mg/kg/injection, schedule: Q04DX003 (ip), vehicle: saline 100 % of control | dose: 25.0 mg/kg/injection, schedule: Q04DX003 (ip), vehicle: saline 100 % of control

O=S(c1ccccc1)C1CCCCC1O (stereo not drawn)
inactive: dose: 100.0 mg/kg/injection, schedule: Q04DX002 (ip), vehicle: saline with Tween-80 108 % of control | dose: 200.0 mg/kg/injection, schedule: Q04DX002 (ip), vehicle: saline with Tween-80 118 % of control
